For experiment [1], the target named is T1, PAR2 (HT-29 cells, SLIGKV activation) (Homo sapiens, UniProt P55085).
T1 construct: host or cells: HT-29 cells
T1 sequence (P55085 26-397): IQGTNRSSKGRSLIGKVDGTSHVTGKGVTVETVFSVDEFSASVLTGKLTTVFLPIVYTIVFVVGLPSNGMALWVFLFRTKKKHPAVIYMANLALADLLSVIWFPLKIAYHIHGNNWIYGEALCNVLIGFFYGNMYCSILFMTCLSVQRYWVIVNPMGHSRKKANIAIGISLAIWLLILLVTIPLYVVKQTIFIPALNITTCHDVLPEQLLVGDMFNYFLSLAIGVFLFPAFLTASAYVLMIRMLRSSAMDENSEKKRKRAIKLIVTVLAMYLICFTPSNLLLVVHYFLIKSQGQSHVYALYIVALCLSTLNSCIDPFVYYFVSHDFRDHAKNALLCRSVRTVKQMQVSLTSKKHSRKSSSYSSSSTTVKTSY
Description: Ca FLIPR TETRA assay, ANTAGONIST mode, stimulation with 8 μM SLIGKV. In kind it is cell-based. The conditions noted are these: HT-29 cells, antagonist mode, stimulation with 8 μM SLIGKV. The method, boiled down:
(§1)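 Antagonist-mode assay: dye-loaded HT-29 cells, compound 30 min at r.t., then stimulated with final 8 μM SLIGKV, 3.1 U/mL trypsin, 1 U/mL thrombin or 0.6 μM UTP; calcium fluorescence read.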

Experiment [2] addresses T2, PAR2 (HT-29 cells, trypsin activation) (Homo sapiens, UniProt P55085).
T2 construct: host or cells: HT-29 cells
T2 sequence (P55085 26-397): T1 sequence (P55085 26-397)
Briefly: Ca FLIPR TETRA assay, ANTAGONIST mode, stimulation with 3.1 U/mL trypsin. The experiment is classed as cell-based. To be noted: HT-29 cells, antagonist mode, stimulation with 3.1 U/mL trypsin. The procedure, abridged: as §1

Experiment [3] relates to Thrombin-stimulated Ca2+ response in HT-29 cells. Description: Ca FLIPR TETRA assay, ANTAGONIST mode, stimulation with 1 U/mL Thrombin. The experiment is classed as cell-based, human. To be noted: HT-29 cells, antagonist mode, stimulation with 1 U/mL Thrombin. The procedure, abridged: as §1
The test system of experiment [4] is UTP-stimulated Ca2+ response in HT-29 cells. Description: Ca FLIPR TETRA assay, ANTAGONIST mode, stimulation with 0.6 μM UTP. The experiment is classed as cell-based, human. To be noted: HT-29 cells, antagonist mode, stimulation with 0.6 μM UTP. The method, boiled down:
as §1

Broadly, the IC50 is the concentration that gives 50% inhibition.

Take `CC(C)(C)c1cc(C2CCC(F)(F)CC2)nn2cc(C(=O)N3CCN(C(=O)[C@H]4C[C@H](C(=O)O)C4)CC3(C)C)nc12` [Compound I-515]: the half-inhibitory concentration (IC50) in experiment [1] is 62.5 nM; in experiment [2], 110 nM; in experiment [3] (Homo sapiens), over 1000 nM; in experiment [4] (Homo sapiens) it was over 1000 nM.
Take `CC(C)(C)c1cc(C2CCC(F)(F)CC2)nn2cc(C(=O)N3CCN(C(=O)[C@H]4C[C@@H](C(=O)O)C4)CC3(C)C)nc12` [Compound I-516]: the IC50 in experiment [1] was 39.5 nM; in experiment [2], 92 nM; in experiment [3] (Homo sapiens) it was over 1000 nM; in experiment [4] (Homo sapiens), over 1000 nM.
`CC(C)(C)c1cc(-c2ccc(Br)cc2)nn2cc(C(=O)N3CCNC(=O)C3(C)C)nc12` [Compound I-517]: the IC50 in experiment [1] is 2.7 nM; in experiment [2] it was 2.1 nM; in experiment [3] (Homo sapiens), over 1000 nM; in experiment [4] (Homo sapiens), over 1000 nM.
In the case of `CC(C)(C)c1cc(-c2ccc(F)cc2)nn2cc(C(=O)N3CCN(CC(=O)O)C(=O)C3(C)C)nc12` [Compound I-518], the IC50 was 57 nM in experiment [1], 68.5 nM in experiment [2], over 1000 nM in experiment [3] (Homo sapiens) and over 1000 nM in experiment [4] (Homo sapiens).
Turning to `Cc1n[nH]c(C(=O)N2CCN(C(=O)c3cn4nc(-c5ccc(Br)cc5)cc(C(C)(C)C)c4n3)C(C)(C)C2)n1` [Compound I-519], the half-inhibitory concentration (IC50) in experiment [1] is 0.4 nM; in experiment [2] it was 0.4 nM; in experiment [3] (Homo sapiens) it was over 1000 nM; in experiment [4] (Homo sapiens), over 1000 nM.
Turning to `COC(=O)[C@H]1CC[C@@H](C(=O)N2CCN(C(=O)c3cn4nc(-c5ccc(Br)cc5)cc(C(C)(C)C)c4n3)C(C)(C)C2)CC1` [Compound I-520], the IC50 is 1 nM in experiment [1], 1 nM in experiment [2], over 1000 nM in experiment [3] (Homo sapiens) and over 1000 nM in experiment [4] (Homo sapiens).
`CC(C)c1cc(-c2ccc(Cl)cc2)nn2cc(C(=O)N3CCNCC3(C)C)nc12` [Compound I-521]: the IC50 in experiment [1] is 625 nM; in experiment [2], 480 nM; in experiment [3] (Homo sapiens), over 1000 nM; in experiment [4] (Homo sapiens) it was over 1000 nM.
As to `CC1(C)C(=O)NCCN1C(=O)c1cn2nc(-c3ccc(F)cc3)cc(-c3ccc(F)cc3)c2n1` [Compound I-523], the IC50 in experiment [1] was 12 nM; in experiment [2] it was 9.6 nM; in experiment [3] (Homo sapiens), over 1000 nM; in experiment [4] (Homo sapiens), over 1000 nM.
With `CC1(C)CN(C(=O)[C@H]2CC[C@@H](C(=O)O)CC2)CCN1C(=O)c1cn2nc(-c3ccc(F)cc3)cc(-c3ccc(F)cc3)c2n1` [Compound I-524], the IC50 in experiment [1] is 1.4 nM; in experiment [2], 1.7 nM; in experiment [3] (Homo sapiens) it was over 1000 nM; in experiment [4] (Homo sapiens) it was over 1000 nM.
Consider `COC(=O)C1(C)CCC(C(=O)N2CCN(C(=O)c3cn4nc(-c5ccc(F)cc5)cc(C(C)(C)C)c4n3)C(C)(C)C2)CC1` (stereo not drawn) [Compound I-526], for which the 50% inhibitory concentration (IC50) was 0.6 nM in experiment [1], 0.8 nM in experiment [2], over 1000 nM in experiment [3] (Homo sapiens) and over 1000 nM in experiment [4] (Homo sapiens).
On to `COC(=O)C1(C(=O)N2CCN(C(=O)c3cn4nc(-c5ccc(F)cc5)cc(C(C)(C)C)c4n3)C(C)(C)C2)CC1` [Compound I-527], for which the IC50 in experiment [1] is 4.3 nM; in experiment [2], 3 nM; in experiment [3] (Homo sapiens), over 1000 nM; in experiment [4] (Homo sapiens), over 1000 nM.
Consider `COC(=O)C(C)(C)CC(=O)N1CCN(C(=O)c2cn3nc(-c4ccc(F)cc4)cc(C(C)(C)C)c3n2)C(C)(C)C1` [Compound I-528], for which the half-maximal inhibitory concentration (IC50) in experiment [1] is 1.8 nM; in experiment [2], 4.2 nM; in experiment [3] (Homo sapiens), over 1000 nM; in experiment [4] (Homo sapiens), over 1000 nM.
Regarding `COC(=O)CCC(=O)N1CCN(C(=O)c2cn3nc(-c4ccc(F)cc4)cc(C(C)(C)C)c3n2)C(C)(C)C1` [Compound I-529], the IC50 in experiment [1] was 2.2 nM; in experiment [2], 3.7 nM; in experiment [3] (Homo sapiens) it was over 1000 nM; in experiment [4] (Homo sapiens) it was over 1000 nM.
As to `COC(=O)C12CC(C(=O)N3CCN(C(=O)c4cn5nc(-c6ccc(F)cc6)cc(C(C)(C)C)c5n4)C(C)(C)C3)(C1)C2` [Compound I-530], the IC50 in experiment [1] turned out to be 1.3 nM; in experiment [2] it was 2.2 nM; in experiment [3] (Homo sapiens), 410 nM; in experiment [4] (Homo sapiens) it was 500 nM.
`CCOC(=O)/C=C/C(=O)N1CCN(C(=O)c2cn3nc(-c4ccc(F)cc4)cc(C(C)(C)C)c3n2)C(C)(C)C1` [Compound I-531]: the IC50 in experiment [1] is 1.2 nM; in experiment [2] it was 2 nM; in experiment [3] (Homo sapiens), over 1000 nM; in experiment [4] (Homo sapiens), over 1000 nM.
On to `COC(=O)C1(C)CCC(C(=O)N2CCN(C(=O)c3cn4nc(-c5ccc(Cl)cc5)cc(C(C)(C)C)c4n3)C(C)(C)C2)CC1` (stereo not drawn) [Compound I-532], for which the IC50 in experiment [1] is 0.8 nM; in experiment [2], 1.1 nM; in experiment [3] (Homo sapiens), over 1000 nM; in experiment [4] (Homo sapiens), over 1000 nM.
For `CC(C)(C)c1cc(C2CCC(F)(F)CC2)nn2cc(C(=O)N3CCN(C(=O)[C@H]4CC[C@@H](C(=O)O)CC4)CC3(C)C)nc12` [Compound I-533], the IC50 is 4.7 nM in experiment [1], 7.9 nM in experiment [2], over 1000 nM in experiment [3] (Homo sapiens) and over 1000 nM in experiment [4] (Homo sapiens).
As for `CC1(C(=O)O)CCC(C(=O)N2CCN(C(=O)c3cn4nc(-c5ccc(Cl)cc5)cc(C(C)(C)C)c4n3)C(C)(C)C2)CC1` (stereo not drawn) [Compound I-534], the IC50 in experiment [1] was 0.08 nM; in experiment [2], 0.1 nM; in experiment [3] (Homo sapiens), over 1000 nM; in experiment [4] (Homo sapiens), over 1000 nM.
In the case of `CC(C)(C)c1cc(-c2ccc(N=[N+]=[N-])cc2)nn2cc(C(=O)N3CCNC(=O)C3(C)C)nc12` [Compound I-536], the IC50 in experiment [1] was 170 nM; in experiment [2], 235 nM; in experiment [3] (Homo sapiens), over 1000 nM; in experiment [4] (Homo sapiens) it was over 1000 nM.
With `COC(=O)C1CC(C(=O)N2CCN(C(=O)c3cn4nc(-c5ccc(F)cc5)cc(C(C)(C)C)c4n3)C(C)(C)C2)C1` (stereo not drawn) [Compound I-537], the IC50 in experiment [1] is 0.8 nM; in experiment [2] it was 1.2 nM; in experiment [3] (Homo sapiens), over 1000 nM; in experiment [4] (Homo sapiens), over 1000 nM.
Take `COC(=O)[C@H]1CC[C@@H](C(=O)N2CCN(C(=O)c3cn4nc(-c5ccc(Cl)cc5)cc(C(C)C)c4n3)C(C)(C)C2)CC1` [Compound I-539]: the IC50 was 0.8 nM in experiment [1], 1.3 nM in experiment [2], over 1000 nM in experiment [3] (Homo sapiens) and over 1000 nM in experiment [4] (Homo sapiens).
Regarding `CC(C)c1cc(-c2ccc(Cl)cc2)nn2cc(C(=O)N3CCN(C(=O)[C@H]4C[C@H](O)C4)CC3(C)C)nc12` [Compound I-540], the IC50 in experiment [1] was 4.2 nM; in experiment [2], 8.2 nM; in experiment [3] (Homo sapiens), over 1000 nM; in experiment [4] (Homo sapiens) it was over 1000 nM.
Turning to `CC(C)c1cc(-c2ccc(Cl)cc2)nn2cc(C(=O)N3CCN(C(=O)[C@H]4C[C@@](C)(O)C4)CC3(C)C)nc12` [Compound I-541], the IC50 is 1 nM in experiment [1], 1.5 nM in experiment [2], over 1000 nM in experiment [3] (Homo sapiens) and over 1000 nM in experiment [4] (Homo sapiens).
Consider `CC(C)c1cc(-c2ccc(Cl)cc2)nn2cc(C(=O)N3CCN(C(=O)[C@H]4C[C@](O)(C(F)(F)F)C4)CC3(C)C)nc12` [Compound I-542], for which the half-inhibitory concentration (IC50) in experiment [1] is 0.2 nM; in experiment [2], 0.3 nM; in experiment [3] (Homo sapiens), over 1000 nM; in experiment [4] (Homo sapiens) it was over 1000 nM.
Consider `CC(C)c1cc(-c2ccc(Cl)cc2)nn2cc(C(=O)N3CCN(C(=O)[C@H]4C[C@@H](O)C4)CC3(C)C)nc12` [Compound I-543], for which the IC50 in experiment [1] is 3.2 nM; in experiment [2] it was 4.8 nM; in experiment [3] (Homo sapiens), over 1000 nM; in experiment [4] (Homo sapiens), over 1000 nM.
As for `COC(=O)C1CC(C(=O)N2CCN(C(=O)c3cn4nc(-c5ccc(Cl)cc5)cc(C(C)C)c4n3)C(C)(C)C2)C1` (stereo not drawn) [Compound I-544], the IC50 was 1.5 nM in experiment [1], 1.8 nM in experiment [2], over 1000 nM in experiment [3] (Homo sapiens) and over 1000 nM in experiment [4] (Homo sapiens).
Regarding `COC(=O)C1CC(C(=O)N2CCN(C(=O)c3cn4nc(-c5ccc(Cl)cc5)cc(C(C)C)c4n3)C(C)(C)C2)C1` (stereo not drawn) [Compound I-545], the IC50 was 1.1 nM in experiment [1], 1.9 nM in experiment [2], over 1000 nM in experiment [3] and over 1000 nM in experiment [4].
Consider `COC(=O)[C@H]1CC[C@H](C(=O)N2CCN(C(=O)c3cn4nc(-c5ccc(Cl)cc5)cc(C(C)C)c4n3)C(C)(C)C2)CC1` [Compound I-546], for which the half-inhibitory concentration (IC50) in experiment [1] was 1.8 nM; in experiment [2] it was 1.6 nM; in experiment [3] (Homo sapiens), over 1000 nM; in experiment [4] (Homo sapiens), over 1000 nM.
Consider `C[C@H]1C(=O)NCCN1C(=O)c1cn2nc(-c3ccc(F)cc3)cc(C(C)(C)C)c2n1` [Compound I-547], for which the IC50 in experiment [1] was 635 nM; in experiment [2], over 1000 nM; in experiment [3] (Homo sapiens), over 1000 nM; in experiment [4] (Homo sapiens), over 1000 nM.
For the compound `C[C@@H]1C(=O)NCCN1C(=O)c1cn2nc(-c3ccc(F)cc3)cc(C(C)(C)C)c2n1` [Compound I-548], the IC50 in experiment [1] was 545 nM; in experiment [2], over 1000 nM; in experiment [3] (Homo sapiens) it was over 1000 nM; in experiment [4] (Homo sapiens), over 1000 nM.

The values above are taken from US20190119282A1, “IMIDAZOPYRIDAZINES USEFUL AS INHIBITORS OF THE PAR-2 SIGNALING PATHWAY” (Vertex Pharmaceuticals Incorporated, priority 2013, published 2019).
